Measured values reported in patent EP0745595A1, “3-(3-Aryloxyphenyl)-1-(substituted methyl)-s-triazine-2,4,6-oxo or thiotrione herbicidal agents” (American Cyanamid Company, priority 1995, dated 1996).

How the values were obtained:
Type in all cases: in vivo
[1] = test system: CYPERUS SEROTINUS, ROTTB.; assay: Preemergence weed control under flooded paddy conditions, CYPSE (Flatsedge); conditions: preemergence, 3-4 weeks after treatment
Procedure: (§1) Results of herbicide evaluation are expressed on a rating scale (0-9). The scale is based upon a visual observation of plant stand, vigor, malformation, size, chlorosis and overall plant appearance as compared with a control.
(§2) Preemergence herbicidal activity under flooded paddy conditions is determined as follows: plant seeds or propagating organs are planted in the top 0.5 cm of silt loam soil in 32 oz. plastic containers with a diameter of 10.5 cm and no drainage holes. Water is added to these containers and maintained at 1.5 to 3 cm above the soil surface for the duration of the experiment. […] The treated containers are placed on greenhouse benches and cared for according to normal greenhouse procedures.- Three to four weeks after treatment the test is terminated and each container is examined and herbicidal effect rated according to the rating system provided in Example 40. The compounds evaluated are reported by compound number given in Example 40.
(§3) Plant species employed in this example are reported by header abbreviation, common name and scientific name.

[2] = test system: CYPERUS IRIA; assay: Preemergence weed control under flooded paddy conditions, CYPIR (Rice Flatsedge); conditions: for Herbicidal effect rating, CYPIR: preemergence, 3-4 weeks after treatment; for CYPIR herbicidal rating: preemergence weeds, rated three to four weeks after treatment
Procedure: as §1, §2, §3

[3] = test system: SAGITTARIA PYGMAEA, L.; assay: Preemergence weed control under flooded paddy conditions, SAGPY (Arrowhead (Pygmaea)); conditions: preemergence, 3-4 weeks after treatment
Procedure: as §1, §2, §3

[4] = test system: ORYZA SATIVA, L. TEBONNET; assay: Rice tolerance to post-transplant applications under flooded paddy conditions, ORYSAT (Rice, Tebonnet); conditions: post-transplant rice; for Herbicidal effect rating, ORYSAT: 3-4 weeks after treatment; for ORYSAT herbicidal rating (rice tolerance): rated three to four weeks after treatment
Procedure: as §1
The tolerance of transplanted rice to post-transplanted herbicide applications is determined as follows: two ten-day-old rice seedlings (CV. Tebonnet) are transplanted into a silt loam soil in 32 oz. plastic containers with a diameter of 10.5 cm and no drainage holes. After transplanting the containers are flooded and the water level is maintained at 1.5 to 3 cm above the soil surface. […] The treated containers are placed on greenhouse benches, watered such that the water level is maintained as stated above, and cared for according to normal greenhouse procedures. Three to four weeks after treatment the test is terminated and each container is examined and herbicidal effect rated according to the rating system provided in Example 40. The compounds evaluated are reported by compound number given in Example 40.
as §3

[5] = test system: […], PRESL.; assay: Preemergence weed control under flooded paddy conditions, MOOVA (Monochoria); conditions: for Herbicidal effect rating, MOOVA: preemergence, 3-4 weeks after treatment; for MOOVA herbicidal rating: preemergence weeds, rated three to four weeks after treatment
Procedure: as §1
Preemergence herbicidal activity under flooded paddy conditions is determined as follows: plant seeds or propagating organs are planted in the top 0.5 cm of silt loam soil in 32 oz. plastic containers with a diameter of 10.5 cm and no drainage holes. Water is added to these containers and maintained at 1.5 to 3 cm above the soil surface for the duration of the experiment. The test compounds are applied as aqueous/acetone mixtures 50/50 v/v pipetted directly into the flood water to give the equivalent of about 0.5, 0.25, 0.125 and 0.063 kg/ha of active ingredient. The treated containers are placed on greenhouse benches and cared for according to normal greenhouse procedures.- Three to four weeks after treatment the test is terminated and each container is examined and herbicidal effect rated according to the rating system provided in Example 40. The compounds evaluated are reported by compound number given in Example 40.
as §3

[6] = test system: CHENOPODIUM ALBUM, L.; assay: Preemergence herbicidal evaluation, CHEAL (Lambsquarters, Common); conditions: for CHEAL herbicidal rating: rated four to five weeks after treatment; for CHEAL rating: four to five weeks after treatment
Text: as §1
The preemergence herbicidal activity of the test compounds of the present invention is exemplified by the following tests in which the seeds of a variety of monocotyledonous and dicotyledonous plants are separately mixed with potting soil and planted on top of approximately one inch of soil in separate pint cups. […] The treated cups are then placed on greenhouse benches, watered and cared for in accordance with conventional greenhouse procedures. From four to five weeks after treatment, the tests are terminated and each cup is examined and rated according to the rating system provided in Example 40.
The compounds evaluated are reported by compound number given in Example 40.

[7] = test system: ECHINOCHLOA ORYZOIDES (ARD.)FRITSCH; assay: Preemergence weed control under flooded paddy conditions, ECHORC (Watergrass (Calif.)); conditions: for Herbicidal effect rating, ECHORC: preemergence, 3-4 weeks after treatment; for ECHORC herbicidal rating: preemergence weeds, rated three to four weeks after treatment
Procedure: as §1, §2, §3

[8] = test system: AMBROSIA ARTEMISIIFOLIA, L.; assay: Postemergence herbicidal evaluation, AMBEL (Ragweed, Common); conditions: rated four to five weeks after treatment, averaged
Procedure: (§4) In the tests, seedling plants are grown in jiffy flats for about two weeks. The test compounds are dispersed in 50/50 acetone/water mixtures containing 0.5% TWEEN®20, a polyoxyethylene sorbitan monolaurate surfactant of Atlas Chemical Industries, […] to the plants through a spray nozzle operating at 40 psi for a predetermined time. After spraying, the plants are placed on greenhouse benches and are cared for in the usual manner, commensurate with conventional greenhouse practices. From four to five weeks after treatment, the seedling plants are examined and rated according to the rating system set forth below. Where more than one test is involved for a given compound, the data are averaged.
(§5) Plant species employed in these evaluations are reported by header abbreviation, common name and scientific name.
as §1

[9] = test system: ABUTILON THEOPHRASTI, MEDIC.; assay: Postemergence herbicidal evaluation, ABUTH (Velvetleaf); conditions: rated four to five weeks after treatment, averaged
Procedure: as §4, §5, §1

[10] = test system: IPOMOEA SPP.; assay: Postemergence herbicidal evaluation, IPOSS (Morningglory spp.); conditions: rated four to five weeks after treatment, averaged
Procedure: as §4, §5, §1

[11] = test system: CHENOPODIUM ALBUM, L.; assay: Postemergence herbicidal evaluation, CHEAL (Lambsquarters, Common); conditions: rated four to five weeks after treatment, averaged
Procedure: as §4, §5, §1

[12] = test system: CASSIA OBTUSIFOLIA, L.; assay: Postemergence herbicidal evaluation, CASOB (Sicklepod); conditions: rated four to five weeks after treatment, averaged
Procedure: In the tests, seedling plants are grown in jiffy flats for about two weeks. The test compounds are dispersed in 50/50 acetone/water mixtures containing 0.5% TWEEN®20, a polyoxyethylene sorbitan monolaurate surfactant of Atlas Chemical Industries, in sufficient quantities to provide the equivalent of about 0.125 kg to 0.500 kg per hectare of active compound when applied to the plants through a spray nozzle operating at 40 psi for a predetermined time. After spraying, the plants are placed on greenhouse benches and are cared for in the usual manner, commensurate with conventional greenhouse practices. From four to five weeks after treatment, the seedling plants are examined and rated according to the rating system set forth below. Where more than one test is involved for a given compound, the data are averaged.
as §5, §1

COC(=O)Cn1c(=O)n(C)c(=O)n(-c2cc(Oc3c(Cl)cc(Cl)cc3Cl)ccc2[N+](=O)[O-])c1=O [Compound 33, Methyl tetrahydro-3-methyl-5-[2-nitro-5-(2,4,6-trichlorophenoxy)phenyl]-2,4,6-trioxo-s-triazine-1(2H)-acetate]
9.0: Herbicidal effect rating, CYPIR ([2]; 0.063 kg/ha) | Herbicidal effect rating, CYPIR ([2]; 0.125 kg/ha) | Herbicidal effect rating, CYPIR ([2]; 0.250 kg/ha) | Herbicidal effect rating, CYPIR ([2]; 0.500 kg/ha) | Herbicidal effect rating, MOOVA ([5]; 0.063 kg/ha) | Herbicidal effect rating, MOOVA ([5]; 0.125 kg/ha) | Herbicidal effect rating, MOOVA ([5]; 0.250 kg/ha) | Herbicidal effect rating, MOOVA ([5]; 0.500 kg/ha) | CHEAL herbicidal rating ([6]; Rate 0.125 kg/ha) | CHEAL herbicidal rating ([6]; Rate 0.250 kg/ha) | CHEAL herbicidal rating ([6]; Rate 0.500 kg/ha)
0.0: Herbicidal effect rating, CYPSE ([1]; 0.063 kg/ha) | Herbicidal effect rating, CYPSE ([1]; 0.125 kg/ha) | Herbicidal effect rating, CYPSE ([1]; 0.250 kg/ha) | Herbicidal effect rating, CYPSE ([1]; 0.500 kg/ha) | Herbicidal effect rating, SAGPY ([3]; 0.063 kg/ha) | Herbicidal effect rating, SAGPY ([3]; 0.125 kg/ha) | Herbicidal effect rating, SAGPY ([3]; 0.250 kg/ha) | Herbicidal effect rating, SAGPY ([3]; 0.500 kg/ha)
3.0: Herbicidal effect rating, ORYSAT ([4]; 0.063 kg/ha) | Herbicidal effect rating, ORYSAT ([4]; 0.125 kg/ha) | Herbicidal effect rating, ORYSAT ([4]; 0.250 kg/ha)
4.0: Herbicidal effect rating, ORYSAT ([4]; 0.500 kg/ha)

C=CCn1c(=O)n(CC(=O)OCC)c(=O)n(-c2cc(Oc3ccc(C(F)(F)F)cc3Cl)ccc2[N+](=O)[O-])c1=O [Compound 13, Ethyl 3-allyl-5-{5-[(2-chloro-α,α,α-tri-fluoro-p-tolyl)oxy]-2-nitrophenyl}tetra-hydro-2,4,6-trioxo-s-triazine-1(2H)-acetate]
9.0: Herbicidal effect rating, CYPIR ([2]; 0.063 kg/ha) | Herbicidal effect rating, CYPIR ([2]; 0.125 kg/ha) | Herbicidal effect rating, CYPIR ([2]; 0.250 kg/ha) | Herbicidal effect rating, CYPIR ([2]; 0.500 kg/ha) | Herbicidal effect rating, ECHORC ([7]; 0.063 kg/ha) | Herbicidal effect rating, ECHORC ([7]; 0.125 kg/ha) | Herbicidal effect rating, ECHORC ([7]; 0.250 kg/ha) | Herbicidal effect rating, ECHORC ([7]; 0.500 kg/ha) | Herbicidal effect rating, MOOVA ([5]; 0.063 kg/ha) | Herbicidal effect rating, MOOVA ([5]; 0.125 kg/ha) | Herbicidal effect rating, MOOVA ([5]; 0.250 kg/ha) | Herbicidal effect rating, MOOVA ([5]; 0.500 kg/ha)
0.0: Herbicidal effect rating, CYPSE ([1]; 0.063 kg/ha) | Herbicidal effect rating, CYPSE ([1]; 0.125 kg/ha) | Herbicidal effect rating, CYPSE ([1]; 0.250 kg/ha) | Herbicidal effect rating, CYPSE ([1]; 0.500 kg/ha) | Herbicidal effect rating, SAGPY ([3]; 0.063 kg/ha) | Herbicidal effect rating, SAGPY ([3]; 0.125 kg/ha) | Herbicidal effect rating, SAGPY ([3]; 0.250 kg/ha) | Herbicidal effect rating, SAGPY ([3]; 0.500 kg/ha)
3.0: Herbicidal effect rating, ORYSAT ([4]; 0.250 kg/ha) | Herbicidal effect rating, ORYSAT ([4]; 0.500 kg/ha)
2.0: Herbicidal effect rating, ORYSAT ([4]; 0.063 kg/ha) | Herbicidal effect rating, ORYSAT ([4]; 0.125 kg/ha)

CCOC(=O)Cn1c(=O)n(C)c(=O)n(-c2cc(Oc3ccc(C(F)(F)F)cc3Cl)ccc2[N+](=O)[O-])c1=O [Compound 9, Ethyl 3-{5-[(2-chloro-α,α,α-trifluoro-p-tolyl)oxy]-2-nitrophenyl}tetrahydro-5-methyl-2,4,6-trioxo-s-triazine-1(2H)-acetate]
5.7: ORYSAT herbicidal rating (rice tolerance) ([4]; Rate 0.250 kg/ha)
9.0: AMBEL, herbicide rating (0-9) ([8]; Rate 0.125 kg/ha) | AMBEL, herbicide rating (0-9) ([8]; Rate 0.250 kg/ha) | AMBEL, herbicide rating (0-9) ([8]; Rate 0.500 kg/ha) | ABUTH, herbicide rating (0-9) ([9]; Rate 0.125 kg/ha) | ABUTH, herbicide rating (0-9) ([9]; Rate 0.250 kg/ha) | ABUTH, herbicide rating (0-9) ([9]; Rate 0.500 kg/ha) | CYPIR herbicidal rating ([2]; Rate 0.063 kg/ha) | CYPIR herbicidal rating ([2]; Rate 0.125 kg/ha) | CYPIR herbicidal rating ([2]; Rate 0.250 kg/ha) | CYPIR herbicidal rating ([2]; Rate 0.500 kg/ha) | IPOSS, herbicide rating (0-9) ([10]; Rate 0.125 kg/ha) | IPOSS, herbicide rating (0-9) ([10]; Rate 0.250 kg/ha) | IPOSS, herbicide rating (0-9) ([10]; Rate 0.500 kg/ha) | CHEAL, herbicide rating (0-9) ([11]; Rate 0.125 kg/ha) | CHEAL, herbicide rating (0-9) ([11]; Rate 0.250 kg/ha) | CHEAL, herbicide rating (0-9) ([11]; Rate 0.500 kg/ha) | CASOB, herbicide rating (0-9) ([12]; Rate 0.125 kg/ha) | CASOB, herbicide rating (0-9) ([12]; Rate 0.250 kg/ha) | CASOB, herbicide rating (0-9) ([12]; Rate 0.500 kg/ha) | ECHORC herbicidal rating ([7]; Rate 0.063 kg/ha) | ECHORC herbicidal rating ([7]; Rate 0.125 kg/ha) | ECHORC herbicidal rating ([7]; Rate 0.250 kg/ha) | ECHORC herbicidal rating ([7]; Rate 0.500 kg/ha) | MOOVA herbicidal rating ([5]; Rate 0.063 kg/ha) | MOOVA herbicidal rating ([5]; Rate 0.125 kg/ha) | MOOVA herbicidal rating ([5]; Rate 0.250 kg/ha) | MOOVA herbicidal rating ([5]; Rate 0.500 kg/ha) | CHEAL rating ([6]; Rate 0.125 kg/ha) | CHEAL rating ([6]; Rate 0.250 kg/ha) | CHEAL rating ([6]; Rate 0.500 kg/ha)
6.0: ORYSAT herbicidal rating (rice tolerance) ([4]; Rate 0.500 kg/ha)
3.3: ORYSAT herbicidal rating (rice tolerance) ([4]; Rate 0.063 kg/ha)
3.7: ORYSAT herbicidal rating (rice tolerance) ([4]; Rate 0.125 kg/ha)
